For test [1], the target named is Muscarinic acetylcholine receptor M5 (Homo sapiens) (UniProt P08912). Description: Inhibition of M5 muscarinic receptor at 10 uM by NIMH PDSP.
The target in test [2] is Muscarinic acetylcholine receptor M4 (Homo sapiens) (UniProt P08173). Description: Inhibition of M4 muscarinic receptor at 10 uM by NIMH PDSP.
Test [3] addresses Alpha-2B adrenergic receptor (Homo sapiens, UniProt P18089). Description: Inhibition of alpha-2B adrenergic receptor by NIMH PDSP.
The target in test [4] is T1, Kappa-type opioid receptor (Homo sapiens, UniProt P41145). The experiment in a line: Inhibition of kappa opioid receptor by NIMH PDSP.
T1 sequence (P41145 whole entry): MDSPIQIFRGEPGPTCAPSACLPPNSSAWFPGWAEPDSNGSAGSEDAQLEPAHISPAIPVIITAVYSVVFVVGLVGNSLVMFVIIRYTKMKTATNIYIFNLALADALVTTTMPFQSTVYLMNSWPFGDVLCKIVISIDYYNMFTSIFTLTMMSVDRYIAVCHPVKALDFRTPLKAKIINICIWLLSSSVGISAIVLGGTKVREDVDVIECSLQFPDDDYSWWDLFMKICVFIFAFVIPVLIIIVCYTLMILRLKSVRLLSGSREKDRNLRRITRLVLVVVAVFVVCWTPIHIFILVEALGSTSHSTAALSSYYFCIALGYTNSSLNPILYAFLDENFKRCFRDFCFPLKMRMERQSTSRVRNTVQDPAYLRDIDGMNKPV
The target of test [5] is Sodium-dependent noradrenaline transporter (Homo sapiens, UniProt P23975). The experiment in a line: Inhibition of NET transporter at 10 uM by NIMH PDSP.
Test [6] addresses Alpha-2A adrenergic receptor (Homo sapiens, UniProt P08913). The experiment in a line: Inhibition of alpha-2A adrenergic receptor by NIMH PDSP.
Test [7] concerns the target Muscarinic acetylcholine receptor M2 (Homo sapiens) (UniProt P08172). Description: Inhibition of M2 muscarinic receptor at 10 uM by NIMH PDSP.
Test [8] is described as follows: Selectivity ratio of Ki for sigma 1 receptor in guinea pig brain to Ki for sigma 2 receptor in rat liver.
In test [9] the target is T2, Alpha-1B adrenergic receptor (Homo sapiens) (UniProt P35368).
T2 sequence (whole entry): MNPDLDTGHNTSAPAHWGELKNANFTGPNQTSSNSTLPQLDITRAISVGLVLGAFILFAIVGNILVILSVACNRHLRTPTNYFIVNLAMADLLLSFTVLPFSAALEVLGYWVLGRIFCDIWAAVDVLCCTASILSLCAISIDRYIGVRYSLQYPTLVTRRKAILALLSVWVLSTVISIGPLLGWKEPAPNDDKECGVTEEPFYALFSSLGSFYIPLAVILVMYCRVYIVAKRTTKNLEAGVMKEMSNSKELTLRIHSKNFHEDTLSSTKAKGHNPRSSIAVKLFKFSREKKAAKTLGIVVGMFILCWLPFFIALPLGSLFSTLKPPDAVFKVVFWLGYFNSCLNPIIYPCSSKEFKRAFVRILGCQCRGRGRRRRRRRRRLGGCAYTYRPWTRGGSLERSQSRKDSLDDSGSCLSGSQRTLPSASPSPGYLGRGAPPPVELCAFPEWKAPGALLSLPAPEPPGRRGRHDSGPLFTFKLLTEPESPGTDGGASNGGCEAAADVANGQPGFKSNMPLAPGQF
The experiment in a line: Inhibition of alpha-1B adrenergic receptor at 10 uM by NIMH PDSP.

Test [10] is described as follows: Displacement of [3H]DTG from sigma 2 receptor in rat liver homogenates in presence of sigma-1 receptor blocker (+)-pentazocine after 120 mins by liquid scintillation counting. It counts as tissue-based.
Test [11] has as its target 5-hydroxytryptamine receptor 7 (Homo sapiens) (UniProt P34969). Description: Inhibition of 5-HT7 receptor at 10 uM by NIMH PDSP.
For test [12], the target named is 5-hydroxytryptamine receptor 2A (Homo sapiens) (UniProt P28223). The experiment in a line: Inhibition of 5-HT2A receptor at 10 uM by NIMH PDSP.
Chain of 5-hydroxytryptamine receptor 2A (Homo sapiens) (P28223 whole entry): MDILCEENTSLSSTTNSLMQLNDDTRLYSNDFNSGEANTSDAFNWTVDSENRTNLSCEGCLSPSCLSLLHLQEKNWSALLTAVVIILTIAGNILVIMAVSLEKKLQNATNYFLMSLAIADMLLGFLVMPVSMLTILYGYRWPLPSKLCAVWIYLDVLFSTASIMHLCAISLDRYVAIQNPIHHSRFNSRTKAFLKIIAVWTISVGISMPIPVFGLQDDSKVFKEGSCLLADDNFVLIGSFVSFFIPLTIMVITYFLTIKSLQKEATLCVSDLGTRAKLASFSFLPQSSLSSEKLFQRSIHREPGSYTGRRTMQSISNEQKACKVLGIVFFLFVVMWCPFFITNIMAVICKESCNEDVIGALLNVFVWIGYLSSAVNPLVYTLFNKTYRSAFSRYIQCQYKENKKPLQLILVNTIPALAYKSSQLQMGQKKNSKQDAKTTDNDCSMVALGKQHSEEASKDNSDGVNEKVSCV
Test [13] concerns the target T3, Alpha-2A adrenergic receptor (Homo sapiens) (UniProt P08913).
T3 sequence (whole entry): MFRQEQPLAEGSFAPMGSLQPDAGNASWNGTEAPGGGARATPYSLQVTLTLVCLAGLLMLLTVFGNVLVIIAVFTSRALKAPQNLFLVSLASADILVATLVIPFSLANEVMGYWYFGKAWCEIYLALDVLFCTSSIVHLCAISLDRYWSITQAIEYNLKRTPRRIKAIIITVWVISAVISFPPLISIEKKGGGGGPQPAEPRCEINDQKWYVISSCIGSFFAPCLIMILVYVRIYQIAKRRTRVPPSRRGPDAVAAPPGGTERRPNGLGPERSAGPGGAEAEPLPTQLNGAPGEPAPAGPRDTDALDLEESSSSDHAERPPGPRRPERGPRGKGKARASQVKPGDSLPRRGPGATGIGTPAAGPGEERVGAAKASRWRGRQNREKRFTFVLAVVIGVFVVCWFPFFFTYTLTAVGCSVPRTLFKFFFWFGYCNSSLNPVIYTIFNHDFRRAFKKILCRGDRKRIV
The experiment in a line: Inhibition of alpha-2A adrenergic receptor at 10 uM by NIMH PDSP.

For test [14], the target named is Muscarinic acetylcholine receptor M5 (Homo sapiens, UniProt P08912). Description: Inhibition of M5 muscarinic receptor by NIMH PDSP.
Chain of Muscarinic acetylcholine receptor M5 (P08912 whole entry): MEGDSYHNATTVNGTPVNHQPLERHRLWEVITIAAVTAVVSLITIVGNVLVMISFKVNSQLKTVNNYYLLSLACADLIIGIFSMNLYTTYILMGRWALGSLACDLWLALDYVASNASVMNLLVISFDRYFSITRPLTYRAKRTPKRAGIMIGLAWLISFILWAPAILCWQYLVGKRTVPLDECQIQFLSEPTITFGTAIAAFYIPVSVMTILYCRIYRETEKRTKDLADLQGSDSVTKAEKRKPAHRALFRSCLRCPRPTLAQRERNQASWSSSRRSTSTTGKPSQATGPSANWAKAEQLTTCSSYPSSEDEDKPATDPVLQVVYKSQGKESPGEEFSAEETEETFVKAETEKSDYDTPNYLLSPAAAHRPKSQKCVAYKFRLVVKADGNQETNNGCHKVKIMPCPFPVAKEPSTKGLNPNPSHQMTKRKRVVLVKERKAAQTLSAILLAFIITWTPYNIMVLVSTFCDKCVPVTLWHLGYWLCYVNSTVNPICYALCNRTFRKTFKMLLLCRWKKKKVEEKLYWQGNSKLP
In test [15] the target is T1, Kappa-type opioid receptor. The experiment in a line: Inhibition of kappa opioid receptor at 10 uM by NIMH PDSP.
The target of test [16] is Muscarinic acetylcholine receptor M2 (Homo sapiens, UniProt P08172). The experiment in a line: Inhibition of M2 muscarinic receptor by NIMH PDSP.
Chain of Muscarinic acetylcholine receptor M2 (P08172 whole entry): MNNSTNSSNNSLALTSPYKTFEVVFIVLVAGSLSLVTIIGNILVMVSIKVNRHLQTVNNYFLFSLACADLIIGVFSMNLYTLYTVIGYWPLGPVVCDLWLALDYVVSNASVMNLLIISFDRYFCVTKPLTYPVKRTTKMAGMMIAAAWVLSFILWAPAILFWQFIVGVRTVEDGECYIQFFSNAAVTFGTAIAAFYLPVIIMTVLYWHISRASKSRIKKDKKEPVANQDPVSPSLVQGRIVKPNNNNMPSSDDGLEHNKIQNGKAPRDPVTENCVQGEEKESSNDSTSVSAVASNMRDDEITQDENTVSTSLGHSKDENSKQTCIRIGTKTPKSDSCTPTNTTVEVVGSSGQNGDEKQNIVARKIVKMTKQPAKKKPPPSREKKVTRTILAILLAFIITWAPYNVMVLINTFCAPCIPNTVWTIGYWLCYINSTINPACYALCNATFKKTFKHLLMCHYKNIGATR
Test [17] can be described thus: Selectivity ratio of Ki for sigma 2 receptor in rat liver to Ki for sigma 1 receptor in guinea pig brain.
Test [18] deals with Muscarinic acetylcholine receptor M4 (Homo sapiens, UniProt P08173). The experiment in a line: Inhibition of M4 muscarinic receptor by NIMH PDSP.
Chain of Muscarinic acetylcholine receptor M4 (P08173 whole entry): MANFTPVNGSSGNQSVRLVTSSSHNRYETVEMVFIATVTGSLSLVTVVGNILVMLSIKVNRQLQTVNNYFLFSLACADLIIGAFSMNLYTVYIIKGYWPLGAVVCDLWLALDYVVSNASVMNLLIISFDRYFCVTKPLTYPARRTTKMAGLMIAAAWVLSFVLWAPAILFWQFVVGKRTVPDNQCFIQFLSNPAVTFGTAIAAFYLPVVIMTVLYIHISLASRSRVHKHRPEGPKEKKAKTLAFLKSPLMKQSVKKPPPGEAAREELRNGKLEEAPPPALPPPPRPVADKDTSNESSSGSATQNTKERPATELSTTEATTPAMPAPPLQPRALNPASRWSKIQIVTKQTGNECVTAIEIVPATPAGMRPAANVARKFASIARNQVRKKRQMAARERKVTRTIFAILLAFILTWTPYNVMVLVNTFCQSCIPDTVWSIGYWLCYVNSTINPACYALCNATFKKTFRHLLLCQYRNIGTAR
For test [19], the target named is Sodium-dependent dopamine transporter (Homo sapiens) (UniProt Q01959). Description: Inhibition of DAT transporter at 10 uM by NIMH PDSP.
Chain of Sodium-dependent dopamine transporter (Homo sapiens) (Q01959 whole entry): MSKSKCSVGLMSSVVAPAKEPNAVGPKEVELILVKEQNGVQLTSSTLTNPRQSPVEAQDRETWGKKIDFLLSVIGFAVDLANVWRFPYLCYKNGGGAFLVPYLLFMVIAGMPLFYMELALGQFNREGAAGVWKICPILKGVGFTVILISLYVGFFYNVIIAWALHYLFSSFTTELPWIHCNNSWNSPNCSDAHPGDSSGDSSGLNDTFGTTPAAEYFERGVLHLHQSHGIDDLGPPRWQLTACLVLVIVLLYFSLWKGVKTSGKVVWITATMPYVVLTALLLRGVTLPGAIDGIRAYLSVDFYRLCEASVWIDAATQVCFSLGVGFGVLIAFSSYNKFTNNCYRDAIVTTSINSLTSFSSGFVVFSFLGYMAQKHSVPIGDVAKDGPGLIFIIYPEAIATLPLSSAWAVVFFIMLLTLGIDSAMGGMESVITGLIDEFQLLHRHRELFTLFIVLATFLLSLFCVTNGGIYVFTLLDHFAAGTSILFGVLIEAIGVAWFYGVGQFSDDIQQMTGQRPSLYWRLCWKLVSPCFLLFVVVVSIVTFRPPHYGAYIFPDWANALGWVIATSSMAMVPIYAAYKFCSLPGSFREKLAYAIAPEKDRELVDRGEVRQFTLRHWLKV
Test [20] deals with T4, Alpha-2B adrenergic receptor (Homo sapiens) (UniProt P18089).
T4 sequence (whole entry): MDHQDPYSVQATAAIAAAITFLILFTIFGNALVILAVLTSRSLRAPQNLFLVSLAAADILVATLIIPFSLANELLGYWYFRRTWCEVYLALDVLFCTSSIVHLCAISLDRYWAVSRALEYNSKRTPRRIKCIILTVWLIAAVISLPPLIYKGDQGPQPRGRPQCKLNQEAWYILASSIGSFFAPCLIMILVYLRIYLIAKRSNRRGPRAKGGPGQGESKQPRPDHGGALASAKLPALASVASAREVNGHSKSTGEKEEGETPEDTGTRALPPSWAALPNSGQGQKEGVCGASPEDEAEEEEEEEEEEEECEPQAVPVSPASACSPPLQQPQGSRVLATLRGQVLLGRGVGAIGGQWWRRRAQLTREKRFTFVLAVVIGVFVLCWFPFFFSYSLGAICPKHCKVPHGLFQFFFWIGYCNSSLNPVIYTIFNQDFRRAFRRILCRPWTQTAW
The experiment in a line: Inhibition of alpha-2B adrenergic receptor at 10 uM by NIMH PDSP.

Test [21] deals with Alpha-1A adrenergic receptor (Homo sapiens, UniProt P35348). Description: Inhibition of alpha-1A adrenergic receptor by NIMH PDSP.
Chain of Alpha-1A adrenergic receptor (P35348 whole entry): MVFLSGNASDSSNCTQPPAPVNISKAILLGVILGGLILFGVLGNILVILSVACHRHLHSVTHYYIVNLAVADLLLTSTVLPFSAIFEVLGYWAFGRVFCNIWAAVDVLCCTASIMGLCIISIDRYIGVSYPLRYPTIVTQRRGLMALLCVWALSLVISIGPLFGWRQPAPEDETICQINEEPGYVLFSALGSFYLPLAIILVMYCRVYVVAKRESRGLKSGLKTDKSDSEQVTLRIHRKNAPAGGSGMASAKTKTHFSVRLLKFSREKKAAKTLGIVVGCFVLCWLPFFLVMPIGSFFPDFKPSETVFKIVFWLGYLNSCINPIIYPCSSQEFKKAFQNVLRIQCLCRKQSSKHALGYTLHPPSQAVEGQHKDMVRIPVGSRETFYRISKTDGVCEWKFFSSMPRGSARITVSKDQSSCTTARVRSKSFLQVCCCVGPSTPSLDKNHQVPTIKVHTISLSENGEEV
The target of the next test is D(1A) dopamine receptor (Homo sapiens, UniProt P21728). The experiment in a line: Inhibition of D1 dopamine receptor by NIMH PDSP.
Chain of D(1A) dopamine receptor (P21728 whole entry): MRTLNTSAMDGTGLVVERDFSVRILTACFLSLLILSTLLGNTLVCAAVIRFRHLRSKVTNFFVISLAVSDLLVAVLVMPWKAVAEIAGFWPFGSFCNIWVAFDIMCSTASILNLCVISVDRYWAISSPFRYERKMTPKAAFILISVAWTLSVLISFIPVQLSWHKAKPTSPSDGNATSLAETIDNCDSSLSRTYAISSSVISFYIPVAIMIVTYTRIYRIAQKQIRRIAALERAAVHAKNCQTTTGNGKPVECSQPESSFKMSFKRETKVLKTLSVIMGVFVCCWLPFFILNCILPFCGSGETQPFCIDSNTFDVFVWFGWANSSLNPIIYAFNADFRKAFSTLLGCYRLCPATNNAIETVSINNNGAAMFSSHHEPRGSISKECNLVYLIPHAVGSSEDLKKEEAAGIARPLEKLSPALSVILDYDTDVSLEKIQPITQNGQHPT

By inhibition is commonly meant the percentage by which the read-out fell short of the control. Low values mean a weak effect, high ones a strong effect. Usually Ki stands for the equilibrium dissociation constant of an inhibitor or competing ligand from its target.

Chain of 5-hydroxytryptamine receptor 7 (Homo sapiens) (P34969 whole entry): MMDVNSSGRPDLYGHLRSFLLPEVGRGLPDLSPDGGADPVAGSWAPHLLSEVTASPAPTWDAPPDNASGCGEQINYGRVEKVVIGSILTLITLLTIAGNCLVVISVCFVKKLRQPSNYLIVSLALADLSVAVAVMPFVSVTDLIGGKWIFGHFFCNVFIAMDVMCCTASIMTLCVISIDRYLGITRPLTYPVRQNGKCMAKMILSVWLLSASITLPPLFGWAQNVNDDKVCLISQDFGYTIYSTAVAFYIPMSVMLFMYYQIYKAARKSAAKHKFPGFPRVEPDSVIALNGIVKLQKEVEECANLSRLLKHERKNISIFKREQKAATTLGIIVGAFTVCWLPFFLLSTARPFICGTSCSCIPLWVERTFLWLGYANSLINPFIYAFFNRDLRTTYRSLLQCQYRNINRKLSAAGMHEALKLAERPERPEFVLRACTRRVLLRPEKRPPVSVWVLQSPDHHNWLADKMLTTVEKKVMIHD
Chain of Muscarinic acetylcholine receptor M2 (Homo sapiens) (P08172 whole entry): as the sequence (P08172 whole entry) above
Chain of Muscarinic acetylcholine receptor M5 (Homo sapiens) (P08912 whole entry): as the sequence (P08912 whole entry) above
Chain of Muscarinic acetylcholine receptor M4 (Homo sapiens) (P08173 whole entry): as the sequence (P08173 whole entry) above

`OC12CC3CC(CC(C3)N1Cc1ccccc1)C2` (racemic): the inhibition in test [1], in test [2], in test [5], in test [7], in test [9] and in test [11] was under 50% throughout. Also, the inhibition in test [12] was under 50%. Further, the Ki in [3] is over 10 µM; in test [4] it was 0.662 µM; in test [6], over 10 µM; in [10], 1.02 µM. The Ratio Ki in [8] stood at 1.4.

Consider `c1ccc(CN2C3CC4CC(C3)CC2C4)cc1`, for which the inhibition in [13], in test [15], in test [19], in test [9], in test [20] and in [11] was under 50% throughout. The inhibition in [12] is under 50%. For the same compound, the inhibition constant (Ki) was determined as 6.55 µM in test [14], 4.3 µM in [16], 1.78 µM in test [18] and 0.095 µM in test [10]. For the same compound, in [17], the Ratio Ki is 3.3.

As for `Fc1cccc(CN2C3CC4CC(C3)CC2C4)c1`, the inhibition in test [13], in test [15], in [19], in [9], in [20] and in test [11] was under 50% throughout. In [12], this compound had an inhibition of under 50%. Besides, the Ki is 5.48 µM in test [14]; over 10 µM in test [21]; 3.54 µM in test [16]; 1.36 µM in test [18]; over 10 µM at D(1A) dopamine receptor; 0.132 µM in [10]. Further, the Ratio Ki in test [17] came to 6.

For the compound `OC12CC3CC(CC(C3)N1Cc1cccc(F)c1)C2` (racemic), the inhibition in test [13], in [1], in test [2], in [7], in test [9] and in test [20] was under 50% in each case. For the same compound, the inhibition in [11] and in test [12] was under 50% throughout. The Ki amounted to 1.2 µM in [4] and 0.705 µM in test [10]. The Ratio Ki in [8] came to 1.2.

These data come from ChEMBL document CHEMBL1821607, “N-Arylalkyl-2-azaadamantanes as cage-expanded polycarbocyclic sigma (σ) receptor ligands” (Bioorg Med Chem Lett, 2011).
